Experimental data taken from PubChem BioAssay AID2423 (Broad Institute, 2010).
Inconclusive results are not listed. Calls of active or inactive are those of the source. No rule for the calls is given here.

Tested on: C. albicans CaCi-8 + fluconazole, Alamar Blue growth, 48 h
Experiment: resistant C. albicans growth inhibition with fluconazole, dose response, CaCi-8 strain, Alamar Blue fluorescence (AID 2423)

Row | SMILES | EC50
1 | CC(=O)NC(CC(=O)NNC(=O)c1cc2ccccc2cc1O)c1ccccc1 (configuration not stated) | 16 µM
2 | C/C(=N\NC(=O)c1cccc(N/N=C(\C)c2cc(O)ccc2O)c1)c1cc(O)ccc1O | > 15 µM (inactive)
3 | Cc1ccc(C(=O)Cn2cccn2)cc1 | 12.7 µM
4 | COc1cccc(N=Nc2ccc(O)c3ncccc23)c1 | 0.505 µM
5 | O=c1c2ccccc2nc(-c2ccc([N+](=O)[O-])cc2)n1O | 6.52 µM
6 | CC(C)c1ccc2c(c1)C(N1CCNCC1)Cc1ccc(F)cc1S2 (configuration not stated) | 7.17 µM
7 | CCOC(=O)c1sc(N2C(=O)C(O)=C(C(=O)c3ccco3)C2c2cccc(Cl)c2)nc1C (configuration not stated) | 0.597 µM
8 | O=C(COc1ccc(Cl)cc1)NC1CCSC1=O (configuration not stated) | > 16 µM (inactive)
9 | CCc1ccc2oc(-c3ccc(OC)cc3)cc(=Nc3c(C)n(C)n(-c4ccccc4)c3=O)c2c1 | 1.54 µM
10 | O=c1cc2oc3cc(O)c(O)cc3c(-c3ccccc3[N+](=O)[O-])c-2cc1O | 1.52 µM
11 | Cc1ccc2c(c1)sc(-c1ccc(N(C)C)cc1)[n+]2C | 0.193 µM
12 | CCCc1cc(C(=O)Nc2sc3c(c2C#N)CCC3)no1 | > 15 µM (inactive)
13 | O=C(CN1CCCc2ccccc21)N/N=C/c1c(O)ccc2ccccc12 | 1.2 µM
14 | CCOc1ccc2nc3cc(NCc4ccc(OC)cc4)ccc3c(N)c2c1 | 4.28 µM
15 | O=C(N/N=C/c1cc(Br)c(Br)o1)c1ccc2c(c1)OCCO2 | 0.643 µM
16 | O=C(NC1CCCCC1)C(c1ccc(Cl)cc1)N(C(=O)c1cnccn1)c1ccc2c(c1)OCO2 (configuration not stated) | 9.72 µM
17 | O=C(NNC(=S)NC(=O)c1ccc(Br)cc1)c1ccc([N+](=O)[O-])cc1 | 0.416 µM
18 | Cc1onc(C(=O)Nc2sc3c(c2C#N)CCCC3)c1[N+](=O)[O-] | 0.989 µM
19 | CN1CCN(Cc2cc(COCc3ccccc3)c3cccnc3c2O)CC1 | 1.46 µM
20 | CCOc1ccccc1C1C2=C(COC2=O)Nc2cc3c(cc21)OCO3 (configuration not stated) | > 16 µM (inactive)
21 | Cc1cc(/C=N/NC(N)=S)c(C)n1-c1cccc(Cl)c1 | 1.65 µM
22 | Cc1onc(-c2ccccc2Cl)c1C(=O)Nc1sc2c(c1C#N)CCC2 | < 0.12 µM

Row | SMILES | EC50
23 | CCC(=O)NC(c1ccccc1OC)c1ccc2cccnc2c1O (configuration not stated) | 0.999 µM
24 | Cc1ccsc1/C=N/NS(=O)(=O)c1ccc([N+](=O)[O-])cc1 | 7.37 µM
25 | O=C(Oc1c(CN2CCOCC2)cc(Cl)c2cccnc12)c1ccccc1Cl | 2.42 µM
26 | COc1cccc(/C=N\NC(=O)c2ccc(Cn3cc(Br)c([N+](=O)[O-])n3)o2)c1O | 5.07 µM
27 | CCCCOc1cccc(C2C(C(=O)c3ccc(C)o3)=C(O)C(=O)N2Cc2ccco2)c1 (configuration not stated) | 0.394 µM
28 | COc1ccc(-n2cc(-c3ccc(C)cc3)[n+]3c2SCC3)cc1 | 2.94 µM
29 | CCOC(=O)c1cnc(-n2cc(C)cn2)nc1Nc1ccccc1OCC | 12.5 µM
30 | Oc1ccc(N=Nc2nccs2)c(O)c1 | 7.25 µM
31 | N/C(Cc1ccccc1)=N\OC(=O)c1cccc2ccccc12 | 1.4 µM
32 | COc1ccc(-c2nn(-c3ccccc3)cc2/C=N/NC(=S)NC(C)C)cc1OC | 1.89 µM
33 | Nc1c(S(=O)(=O)c2cccc(Cl)c2)c2nc3ccccc3nc2n1/N=C/c1ccc(O)c(O)c1 | 6.49 µM
34 | Oc1[nH]c2c(Cl)cc(Cl)cc2c1N=NC(=S)NCC1CCCO1 (configuration not stated) | 3.58 µM
35 | COc1ccc(C(=O)NN/C(C)=C/C(=O)C(F)(F)C(F)(F)C(F)(F)F)cc1 | 5.05 µM
36 | O=C(CCl)N1c2ccccc2CCc2ccccc21 | 1.01 µM
37 | COc1ccc(-c2cc(C(=O)NNC(=S)NC(=O)c3c(-c4ccccc4)noc3C)[nH]n2)cc1 | 2.46 µM
38 | O=C1c2ccccc2NC(c2cn[nH]c2-c2ccc(Cl)cc2)N1O (configuration not stated) | > 16 µM (inactive)
39 | NC(=S)NNc1cccc(Cl)c1 | > 16 µM (inactive)
40 | Cc1ccc(S(=O)(=O)/N=C2/NC(=O)/C(=C\c3cc(Br)cc(Br)c3O)S2)cc1 | 9.68 µM
41 | CC(C)(C)c1nnc(NC(=O)CCS(=O)(=O)c2ccccc2)s1 | 0.943 µM
42 | Cc1cc(=O)oc2cc(Oc3ccc([N+](=O)[O-])cc3[N+](=O)[O-])ccc12 | 0.652 µM
43 | CN1CCc2cc3c(c4c2C1Cc1ccccc1-4)OCO3 (configuration not stated) | > 15 µM (inactive)
44 | NC(=O)CC12CC3CC(C1)CC(CC(N)=O)(C3)C2 | > 16 µM (inactive)

Row | SMILES | EC50
45 | COc1ccc(-n2nc(C(=O)NCC(=O)N3CCN(c4ccc(F)cc4)CC3)c3ccccc3c2=O)c(OC)c1 | 0.773 µM
46 | O=C1/C(=C\c2cccnc2)SC(=S)N1C1CCS(=O)(=O)C1 (configuration not stated) | > 16 µM (inactive)
47 | O=C1CN2C(=Nc3ccc(Cl)cc3C2c2ccccc2)CN1 (configuration not stated) | 3.3 µM
48 | O=C(CCl)N(c1ccc(Cl)cc1)c1c[nH]c2ccccc12 | 6.41 µM
49 | CCC(=O)NC(c1ccco1)c1cc(Cl)c2cccnc2c1O (configuration not stated) | 0.788 µM
50 | Oc1ccccc1/C=N/Nc1nccnc1Cl | 1.28 µM
51 | O=S(=O)(Cc1ccc(Cl)cc1)N1CCN(Cc2ccccc2)CC1 | > 16 µM (inactive)
52 | FC(F)(F)COc1nc(OCC(F)(F)F)nc(N2CCN(c3ccccc3)CC2)n1 | > 16 µM (inactive)
53 | Oc1nc(Nc2ccccc2)sc1/C=C1\C=Nc2ccccc21 | 1.63 µM
54 | Cc1ccc(C(=O)CC(=O)COc2ccc(Cl)cc2)cc1 | 2.98 µM
55 | NC(=S)n1[nH]c(-c2ccc([N+](=O)[O-])cc2)c(N=Nc2cccc([N+](=O)[O-])c2)c1=O | 2.83 µM
56 | CSC(=S)NCc1cccnc1 | > 16 µM (inactive)
57 | Cc1ccccc1Nc1ncccc1C(=O)N1CCOCC1 | > 16 µM (inactive)
58 | C=CCn1c(O)c(N=NC(=S)Nc2ccc(OC)cc2)c2ccccc21 | 7.7 µM
59 | CCCCn1c(SCC(=O)Nc2cccc(OC)c2)nc2ccc(N3CCOCC3)cc2c1=O | 3.63 µM
60 | COc1cc(OC)cc(C(=O)NNC(=O)c2cc3ccccc3cc2O)c1 | 9.18 µM
61 | CCCCC(=O)NNC(=S)NC(=O)C(c1ccccc1)c1ccccc1 | 1.72 µM
62 | CCCCCCCCCCCCCCCC[n+]1cccc(C(=O)N(CC)CC)c1 | 6.23 µM
63 | COc1ccc(C(=O)Nc2ccccc2C(=O)Nc2ccccc2C(=O)O)cc1 | 7.54 µM
64 | O=C(NC(=S)NNC(=O)c1cc2ccccc2cc1O)c1ccco1 | 1.03 µM
65 | Cc1cccc(NC(=O)CSC(N)=O)c1C | > 15 µM (inactive)
66 | COc1cnc(-c2ccccn2)nc1Sc1cccc(Cl)c1 | > 16 µM (inactive)

Row | SMILES | EC50
67 | CSCCC1NC2(C(=O)Nc3c(C)cc(Cl)cc32)[C@@H]2C(=O)N(C3CCCC3)C(=O)[C@H]12 (some centres not stated) | 10.1 µM
68 | COc1ccc(-n2nc(C(=O)NCC(=O)N3CCN(c4ccccc4)CC3)c3ccccc3c2=O)c(OC)c1 | 0.698 µM
69 | CCc1ccc(CNC(=O)CCC(=O)N2Cc3cccc(OC)c3Oc3ncccc32)cc1 | > 16 µM (inactive)
70 | CC(=O)NC(c1ccccc1)c1cc(Cl)c2cccnc2c1O (configuration not stated) | 0.764 µM
71 | COc1ccc(-c2nnc(NC(=O)c3ccc(F)cc3)o2)cc1 | 0.246 µM
72 | O=C(Nc1nc2ccc(S(=O)(=O)N3CCCCC3)cc2s1)c1ccncc1 | 1.04 µM
73 | COc1ccc(Cn2c(O)c(/C=N/NC(=O)c3cccnc3)c3ccccc3c2=O)cc1 | 0.765 µM
74 | CCC(=O)N1CCN(c2ccc(Cl)cc2NC(=O)c2ccc3c(c2)OCCO3)CC1 | 0.811 µM
75 | CCCCN(CCCC)S(=O)(=O)c1ccc(C(=O)Nc2nnc(COC)o2)cc1 | > 15 µM (inactive)
76 | COc1cc2c(O)c3c(c(-c4ccc5c(c4)OCO5)c2cc1OC)C(=O)OC3 | 2.21 µM
77 | COc1ccc(/C=N/OCC(=O)Nc2nc3ccccc3s2)cc1 | 3.05 µM
78 | CCC(=O)NC(c1cccs1)c1ccc2cccnc2c1O (configuration not stated) | 1.51 µM
79 | CCCC(=O)NC(c1ccc(N(C)C)cc1)c1ccc2cccnc2c1O (configuration not stated) | 0.627 µM
80 | Cc1nc2ccccc2cc1OCc1ccccc1 | 1.62 µM
81 | CN(CCCNC(=O)CCCOc1cc(=O)n(C)c2ccccc12)Cc1ccccc1 | > 16 µM (inactive)
82 | CC(=O)c1c(C)nc(-c2cccc([N+](=O)[O-])c2)n1O | 3.29 µM
83 | Cc1cc(SCC(=O)N/N=C/c2ccc(O)c(O)c2O)c(C)cc1Br | 0.884 µM
84 | COc1ccc(C2c3ccc4ccccc4c3Oc3ncn(CCN4CCOCC4)c(=N)c32)cc1 (configuration not stated) | 1.18 µM
85 | COc1cccc(/C=N/NC(=O)c2c(C)nc3ccc(Br)cn23)c1O | 0.642 µM
86 | O=C(Oc1c(Cl)cc(Cl)c2cccnc12)N1CCOCC1 | > 15 µM (inactive)
87 | COc1ccc(C(=O)NNC(=S)NC(=O)c2ccc(Cl)cc2)cc1 | 0.928 µM
